Reference: publication PMC11513854, “De novo GTP synthesis is a metabolic vulnerability for the interception of brain metastases” (Cell Reports Medicine, 2024)

Experiments:
[1] = Parallel artificial membrane permeability (PAMPA) assay; assay type: in vitro ADME; settings: 50 μM, pH 7.4, 16 h; −LogPe < 6 indicate high CNS permeability
Description: The permeability of the compounds was evaluated using the parallel artificial membrane permeability (PAMPA) assay, as previously described.[35] The PAMPA assembly was consisted of the acceptor plate (MultiScreen IP Filter Plate, Millipore Sigma, Canada) and the donor plate (96 well Collection Plate, Millipore Sigma, Canada). The artificial membrane solution was prepared as 15 mg/mL of polar brain lipid from porcine (Sigma Aldrich, Oakville, Canada) in a solution of 60% chloroform/40% dodecane. Seven μL of the mixture was pipetted into each acceptor plate well (top compartment). Thereafter, 300 μL of PBS (1 × PBS, pH 7.4, 5% DMSO) solution was added to each well of the acceptor plate and 300 μL of drug-containing donor solutions (50 μM compounds in 1 × PBS, pH 7.4, 5% DMSO) to each well of the donor plate (bottom compartment) in triplicate. […] The concentration of the compounds was determined by LC/MS/MS. The effective permeability (Pe), in units of centimeter per second, was calculated using the following equation: LogPe=Log{C×[−Ln(1−[drug]acceptor/[drug]equilibrium)]} Where: C = VD × VA/[(VD + VA) × t × A]; VD = volume of donor compartment (0.30 mL); VA = volume of acceptor compartment (0.30 mL); A = filter area (0.24 cm^2 for Multi-Screen Permeability Filter plate); and t = incubation time (in seconds).

melanoma-BM = test: Pre-treatment melanoma-BM PDX model; assay type: in vivo, mice; settings: pre-treated BMICs
Description: We decided to focus primarily on lung-BM for our in vivo experiments because they account for over 50% of all BM cases. […] This phenotype was also recapitulated in a melanoma-BM PDX model (Figures S2A and S2B).
Fig S2. PDX m odels m im ic patient data, related to Figure 3. a, Representative IVIS bioluminescence images of […]
imaging system. Comparisons were made via a two-tailed unpaired t-test and data are presented as mean ± SED from 4-5 technical replicates. […]
following intracranial engraftment of patient-der ived BMICs. Comparisons were made via a Log-rank (Mantel-Cox) test, P value is indicated. c, CRUK0748, a patient- derived lung tumor cell line that metastasized to the brain of the patient it was retrieved from, was confirmed to metastasize to the brains of mice in our animal models following intrathoracic injection. CRUK0733, a patient-derived lung tumor cell line that has not metastasized to the brain of […]
anti-proliferative effect on BMICs isolated from the brains of mice following CRUK0748 metastasis to the brain.
(1 picture or pasted object on this page, not shown here)

patient-derived BMICs = test: Clonogenic sphere formation assay; assay type: cell-based, human; settings: limiting dilution and clonogenic sphere formation assays, IC80
Description: To assess tumor sphere forming capacity under clonogenic conditions, neurospheres were dissociated into single cells and plated at a low density of 200 cells/well in low-binding tissue culture-treated 96-well plates in serum-free media as previously described.[14]^,[66]^,[67]^,[68]^,[69] Cells were incubated with drug (IC80) or DMSO control, in triplicate, and incubated at 37°C with a humidified atmosphere of 5% CO2. The number of spheres per well were manually counted seven days later. The results were illustrated and analyzed for significance using GraphPad Prism 8 software.

[2] = system: primary CRUK0748 lung tumor cells; test: Pre-treatment model, intrathoracic engraftment of primary lung tumor cells; assay type: in vivo, mice; settings: cells pre-treated in vitro
Description: Mice injected with MPA-treated cells also experienced a significant increase in median survival time of 6 days compared to the mice injected with vehicle-treated cells (Figure 3H).
BMICs were dissociated into single cell suspensions and resuspended in phosphate buffered saline (PBS, Wisent Bio) with 2 mM EDTA. Cells were stained with APC-conjugated anti-human TRA-1-85 (CD147; Cat # 130-128-900, Miltenyi Biotec) and incubated for 15 min at room temperature. The viability dye 7-Aminoactinomycin D (7-AAD; Cat # 00-6993-50, eBioscience) was used to exclude dead cells; incubation with 7-AAD allows for penetration of compromised membranes and binding to DNA.[74] Live cells were analyzed using Summit 5.4 software on MoFlo XDP cell sorter (Beckman Coulter) to confirm human BMIC metastasis to the brain.

normal brain cells = test: Dose-response curves of control normal brain cells; assay type: cell-based, human; settings: 72-h treatment, same concentrations (below 10 μM)
Description: PrestoBlue readout is normalized to vehicle-treated cells. Data are presented as mean ± SD from 4 technical replicates. (C) Assessment of cell viability of patient-derived BMICs treated with MPA or its vehicle. PrestoBlue readout is normalized to vehicle-treated cells, p < 0.0001. […] Sphere count normalized to vehicle-treated cells, p < 0.0001. (F and G) Percent wound closure of DMSO control vs. MPA-treated cells expressed as an average of replicates (n = 3) and images are taken at 10× magnification. Wound closure (represented by dotted white line) is measured using ImageJ on Incucyte-derived images, p values are indicated. Scale bars are 400 μm. See also Videos S1, S2, S3, and S4. Comparisons of cell viability, sphere formation, and wound closure were made via a two-tailed unpaired t test and data are presented as mean ± SD from 3 to 4 technical replicates. […]
Dose-response assays were conducted using the same protocol apart from drugs being plated using 2-fold serial dilutions (20 μM - 39 nM) as previously described.[66] The half maximal inhibitory concentration (IC50) is determined by plotting percent cell viability by the logarithmic concentration of drug. IC80 concentrations will be used for subsequent functional assays (cell proliferation, sphere formation), as determined by the following formula: ICF=100−F/F^1/H×IC50 where F = fraction of maximal response and H = hill slope.

[3] = carboxylic acid functionality; no measurement described; cited from earlier work

COc1c(C)c2c(c(O)c1C/C=C(\C)CCC(=O)OCCN1CCCC1)C(=O)OC2 [Compound 3]
BBB penetrance by PAMPA [1]: BBB penetrant

COc1c(C)c2c(c(O)c1C/C=C(\C)CCC(=O)O)C(=O)OC2 [MPA, Mycophenolic acid]
brain tumor burden and survival phenotype (melanoma-BM): recapitulated | frequency of stemness in BMIC lines (patient-derived BMICs): significantly reduces the frequency of stemness | TRA-1-85-positive human cells detected in brains ([2]; humane endpoint, flow cytometry, vs vehicle): significantly fewer | increase in median survival time ([2]; intrathoracic injection, vs vehicle-treated cells): 6 days | toxicity to normal brain cells (normal brain cells): nontoxic | pKa [3]: ~5
